Data taken from US20100173943A1, “INSECTICIDAL COMPOSITIONS WITH IMPROVED ACTION” (BAYER CROPSCIENCE AG, priority 2007, published 2010).
Like-named read-outs stand apart in the source and are kept apart here.

Experiments:
[1] = test system: cotton aphid (Aphis gossypii); test: Aphis gossypii test (APHIGO spray treatment); format: in vivo; conditions: for pest or weed control at 4 ppm: 4 ppm a.i. alone
Experimental: Aphis gossypii Test (APHIGO Spray Treatment)
(§1) Solvent: 7 parts by weight of dimethylformamide
(§2) Emulsifier: 2 parts by weight of alkylaryl polyglycol ether
(§3) To prepare a ready-to-use active ingredient formulation, 1 part by weight of active ingredient is mixed with the specified amounts of solvent and emulsifier and the concentrate is diluted with emulsifier-containing water to the desired concentration. In the case that addition of ammonium salts, penetrants, or ammonium salts and penetrants is required, they are pipetted in each case into the finished preparation solution after dilution in a concentration of 1000 ppm each.
Cotton leaves (Gossypium hirsutum) highly infested by the cotton aphid (Aphis gossypii) are sprayed with an active ingredient formulation with the desired concentration.
After the desired period, the kill rate in % is determined. 100% means that all aphids have been killed; 0% means that no aphids have been killed.

[2] = test system: green peach aphid (Myzus persicae); test: Myzus persicae test (MYZUPE); format: in vivo; conditions: for pest or weed control at 4 ppm: 4 ppm a.i. alone
Experimental: Myzus persicae Test (MYZUPE)
as §1, §2
as §3, with “prepare an appropriate” for “prepare a ready-to-use”, “the given” for “the specified”, “and emulsifier,” for “and emulsifier”, “are pippetted” for “are pipetted”
Pepper plants (Capsicum annuum) highly infested by the green peach aphid (Myzus persicaei) are treated by spraying with the active ingredient formulation in the desired concentration.
After the desired time, the kill rate in % is determined. 100% means that all animals have been killed; 0% means that no animals have been killed.

[3] = 4 ppm a.i. + AMS and RME 1000 ppm each, pepper plants sprayed, 6 days
[4] = 4 ppm a.i. + ammonium sulphate 1000 ppm, pepper plants sprayed, 6 days
[5] = 4 ppm a.i. + rapeseed oil methyl ester 1000 ppm, pepper plants sprayed, 6 days
[6] = Myzus persicae, 144 h, pepper plants sprayed, 6 days, read-out: Kill in % after 6 days a.i.
[7] = 4 ppm a.i. + AMS and RME 1000 ppm each, cotton leaves sprayed, 6 days
[8] = 4 ppm a.i. + ammonium sulphate 1000 ppm, cotton leaves sprayed, 6 days
[9] = 4 ppm a.i. + rapeseed oil methyl ester 1000 ppm, cotton leaves sprayed, 6 days
[10] = Aphis gossypii, 144 h, cotton leaves sprayed, 6 days, read-out: Kill in % after 6 days a.i.
[11] = 0.8 ppm a.i. + AMS and RME 1000 ppm each, pepper plants sprayed, 6 days
[12] = 0.8 ppm a.i. + ammonium sulphate 1000 ppm, pepper plants sprayed, 6 days
[13] = 0.8 ppm a.i. + rapeseed oil methyl ester 1000 ppm, pepper plants sprayed, 6 days
[14] = Myzus persicae, 144 h, 0.8 ppm a.i. alone, pepper plants sprayed, 6 days, read-out: Kill in % after 6 days a.i.
[15] = 0.8 ppm a.i. + AMS and RME 1000 ppm each, cotton leaves sprayed, 6 days
[16] = 0.8 ppm a.i. + ammonium sulphate 1000 ppm, cotton leaves sprayed, 6 days
[17] = 0.8 ppm a.i. + rapeseed oil methyl ester 1000 ppm, cotton leaves sprayed, 6 days
[18] = Aphis gossypii, 144 h, 0.8 ppm a.i. alone, cotton leaves sprayed, 6 days, read-out: Kill in % after 6 days a.i.

Row | SMILES | Kill in % after 6 days +AMS + RME [2, 3] [%] | Kill in % after 6 days +AMS [2, 4] [%] | Kill in % after 6 days +RME [2, 5] [%] | pest or weed control at 4 ppm [2, 6] [%] | Kill in % after 6 days +AMS + RME [2, 11] [%] | Kill in % after 6 days +AMS [2, 12] [%] | Kill in % after 6 days +RME [2, 13] [%] | Kill in % after 6 days +AMS + RME [1, 15] [%] | Kill in % after 6 days +AMS [1, 16] [%] | Kill in % after 6 days +RME [1, 17] [%] | pest or weed control at 0.8 ppm [1, 18] [%] | also measured
1 | CN(Cc1ccc(Cl)nc1)C1=CC(=O)CCC1 [Compound I-38, 3-{[(6-chloropyrid-3-yl)methyl](methyl)amino}cyclohex-2-en-1-one] | 70 | 5 | 65 | 5 |  |  |  |  |  |  |  | Kill in % after 6 days +AMS + RME ([1]; 100 ppm a.i. + AMS and RME 1000 ppm each, cotton leaves sprayed, 6 days): 55%; Kill in % after 6 days +AMS ([1]; 100 ppm a.i. + ammonium sulphate 1000 ppm, cotton leaves sprayed, 6 days): 90%; Kill in % after 6 days +RME ([1]; 100 ppm a.i. + rapeseed oil methyl ester 1000 ppm, cotton leaves sprayed, 6 days): 70%; pest or weed control at 100 ppm ([1]; Aphis gossypii, 144 h, 100 ppm a.i. alone, cotton leaves sprayed, 6 days, read-out: Kill in % after 6 days a.i.): 45%
2 | CN(Cc1cnc(Cl)c(Cl)c1)C1=CC(=O)OC1 [Compound I-10, 4-{[(5,6-dichloropyrid-3-yl)methyl](methyl)amino}furan-2(5H)-one] |  |  |  |  | 99 | 0 | 90 |  |  |  |  | Kill in % after 6 days +AMS + RME [1, 7]: 99%; Kill in % after 6 days +AMS [1, 8]: 99%; Kill in % after 6 days +RME [1, 9]: 85%; pest or weed control at 4 ppm [1, 10]: 65%; pest or weed control at 0.8 ppm [2, 14]: 0%
3 | O=C1C=C(N(Cc2ccc(Cl)nc2)CC(F)F)CO1 [Compound I-7, 4-{[(6-chloropyrid-3-yl)methyl](2,2-difluoroethyl)amino}furan-2(5H)-one] |  |  |  |  | 90 | 45 | 80 | 80 | 60 | 70 |  | pest or weed control at 0.8 ppm ([1]; Aphis gossypii, 144 h, read-out: Kill in % after 6 days a.i.): 60%; pest or weed control at 0.8 ppm ([2]; Myzus persicae, 144 h, read-out: Kill in % after 6 days a.i.): 55%
4 | O=C1C=C(N(Cc2ccc(F)nc2)CC(F)F)CO1 [Compound I-3, 4-{[(6-fluoropyrid-3-yl)methyl](2,2-difluoroethyl)amino}furan-2(5H)-one] | 100 | 80 | 85 | 0 |  |  |  | 90 | 15 | 35 | 0 | 
5 | O=C1C=C(N(Cc2ccc(C(F)(F)F)nc2)C2CC2)CO1 [Compound I-24, 4-(cyclopropyl {[6-(trifluoromethyl)pyrid-3-yl]methyl}amino)furan-2(5H)-one] | 75 | 20 | 85 | 15 |  |  |  |  |  |  |  | Kill in % after 6 days +AMS + RME ([1]; 20 ppm a.i. + AMS and RME 1000 ppm each, cotton leaves sprayed, 6 days): 90%; Kill in % after 6 days +AMS ([1]; 20 ppm a.i. + ammonium sulphate 1000 ppm, cotton leaves sprayed, 6 days): 85%; Kill in % after 6 days +RME ([1]; 20 ppm a.i. + rapeseed oil methyl ester 1000 ppm, cotton leaves sprayed, 6 days): 85%; pest or weed control at 20 ppm ([1]; Aphis gossypii, 144 h, 20 ppm a.i. alone, cotton leaves sprayed, 6 days, read-out: Kill in % after 6 days a.i.): 50%; Kill in % after 6 days +AMS + RME ([2]; 20 ppm a.i. + AMS and RME 1000 ppm each, pepper plants sprayed, 6 days): 98%; Kill in % after 6 days +AMS ([2]; 20 ppm a.i. + ammonium sulphate 1000 ppm, pepper plants sprayed, 6 days): 90%; Kill in % after 6 days +RME ([2]; 20 ppm a.i. + rapeseed oil methyl ester 1000 ppm, pepper plants sprayed, 6 days): 95%; pest or weed control at 20 ppm ([2]; Myzus persicae, 144 h, 20 ppm a.i. alone, pepper plants sprayed, 6 days, read-out: Kill in % after 6 days a.i.): 75%
6 | O=C1C=C(N(Cc2ccc(Br)nc2)CC(F)F)CO1 [Compound I-2] |  |  |  |  | 30 | 50 | 98 | 15 | 98 | 90 | 15 | pest or weed control at 0.8 ppm [2, 14]: 0%
7 | CC1OC(=O)C=C1N(C)Cc1ccc(Cl)nc1 (centres unmarked) [Compound I-25, 4-{[(6-chloropyrid-3-yl)methyl](methyl)amino}-5-methylfuran-2(5H)-one] | 55 | 50 | 80 | 0 |  |  |  |  |  |  |  | Kill in % after 6 days +AMS + RME [1, 7]: 100%; Kill in % after 6 days +AMS [1, 8]: 60%; Kill in % after 6 days +RME [1, 9]: 75%; pest or weed control at 4 ppm [1, 10]: 65%
8 | O=C1C=C(N(Cc2cnc(Cl)c(Cl)c2)C2CC2)CO1 [Compound I-9, 4-{[(5,6-dichloropyrid-3-yl)methyl](cyclopropyl)amino}furan-2(5H)-one] | 70 | 15 | 60 | 0 |  |  |  | 30 | 0 | 15 | 0 | 
